Source: patent publication US20240245677A1, “SELECTED COMPOUNDS FOR TARGETED DEGRADATION OF BRD9” (C4 THERAPEUTICS, INC., priority 2021, published 2024)

What was measured:
[1] = Rat Hepatocyte Stability Assay; type: in vitro ADME; conditions: Sprague-Dawley, cryopreserved hepatocytes
Procedure: (§1) The metabolic stability of Compound 1 was evaluated using cryopreserved hepatocytes from mice, rats, dogs, cynomolgus monkeys, and humans.
(§2) 50 μL of 1 mM intermediate solutions for each test compound was prepared by adding 5 μL of 10 mM stock solution to 45 μL of a 1:1 mixture of water and acetonitrile. A 2 μM working stocks for each test compound were prepared in incubation media, InvitroGRO™ KHB (Bio IVT, Westbury, NY, USA), by adding 2 μL of 1 mM intermediate stock to 998 μL of incubation media.
(§3) To thaw the hepatocytes, InvitroGRO™ HT thawing medium (BioIVT, Westbury, NY, USA) was prewarmed to 37° C., and 48 mL of warmed thawing medium was transferred to a sterile 50 mL conical tube. The hepatocyte vial was removed from the liquid nitrogen Dewar, and gently thawed in a water bath at 37° C. for 1-2 minutes, then the contents of the vial were emptied into a conical tube with prewarmed InvitroGRO HT medium. 1 mL of prewarmed InvitroGRO HT medium was added to each emptied hepatocyte vial to resuspend any remaining cells, and the contents were pipetted into the hepatocyte suspension. The tube containing the hepatocyte suspension was centrifuged at 50*g for 5 minutes. The supernatant was removed carefully, and the remaining pellet was resuspended by adding 1 mL of incubation media, InvitroGRO KHB, and gently shaking until there were no clumps.
(§4) Cell viability was determined using the trypan blue method. 25 μL of hepatocyte cell suspension was added to a trypan blue (TB) solution (containing 775 μL InvitroGRO KHB and 200 μL of Trypan Blue). Cell count was taken using a hemacytometer.
(§5) For mouse hepatocytes, 200 μL of hepatocytes (0.8×10^6 cells/mL) were added to the wells of a 48 well plate (Catalog No. 92048, TPP Techno Plastic Products AG, Trasadingen, Switzerland) and pre-incubated for 30 minutes at 37° C. For rat, dog, monkey, […], 200 μL of hepatocytes (2×10^6 cells/mL) were added to the wells of a 48 well plate (Catalog No. 92048, TPP Techno Plastic Products AG, Trasadingen, Switzerland) and pre-incubated for 30 minutes at 37° C.
(§6) For all species of hepatocytes, once the pre-incubation period was complete, 200 μL of 2 μM working stock of test compound was added to the wells of the plate, and the plate was vortexed on a Vibramax™ 100 (P/N 544-21200-00, Heidolph Instruments GmbH & Co. KG, Schwabach, Germany) at 500 rpm in a 37° C. CO2 incubator (Model No. 51026280, ThermoFisher Scientific, Waltham, MA, USA). At each time point of 0, 15, 30, 60, 90, and 120 minutes, 50 μL of incubation mixture was precipitated with 200 μL of acetonitrile containing internal standard.
(§7) At the end of the experiment, the samples were centrifuged at 4000 rpm for 10 minutes. […]

[2] = tested on: cryopreserved hepatocytes from Sprague-Dawley rats; experiment: Rat Hepatocyte Stability Assay; type: in vitro ADME
Procedure: as §1, §2, §3, §4, §5, §6, §7

[3] = Crystallization under nitrogen flow by fast evaporation; type: physicochemical
Procedure: Based on approximate solubility results, about 10 mg of Compound 1 free form Pattern E was dissolved in suitable amount of solvents. […] Solid residues were examined for their polymorphic form.

## COc1cc(-c2cn(C)c(=O)c(C)c2C)cc(OC)c1CN1CC[C@H](N2CCN(c3ccc(N[C@H]4CCC(=O)NC4=O)cc3F)CC2)C(F)(F)C1 [Compound 1, (S)-3-((4-(4-((S)-1-(2,6-dimethoxy-4-(1,4,5-trimethyl-6-oxo-1,6-dihydropyridin-3-yl)benzyl)-3,3-difluoropiperidin-4-yl)piperazin-1-yl)-3-fluorophenyl)amino)-piperidine-2,6-dione]
[1]
  half-life at 1 µM: > 2 h
[1]; read-out: CL int cells
  hepatocyte CLint at 1 µM: 3.7 µL/min/1e6 cells
[2]
  CLh int in vivo: 17.76 mL/min/Kg body wt.
  CLhb scaled well stirred: 14.2 mL/min/kg body wt.
[3]; fast evaporation under nitrogen flow, 1,4-dioxane
  Comments: Gel-like sample
[3]; fast evaporation under nitrogen flow, 2-MeTHF
  Comments: Gel-like sample
[3]; fast evaporation under nitrogen flow, Acetone
  Comments: Gel-like sample
[3]; fast evaporation under nitrogen flow, Acetonitrile
  XRPD: Pattern B
[3]; fast evaporation under nitrogen flow, DCM
  Comments: Gel-like sample
[3]; fast evaporation under nitrogen flow, Ethanol
  Comments: Gel-like sample
[3]; fast evaporation under nitrogen flow, Ethyl acetate
  Comments: Gel-like sample
[3]; fast evaporation under nitrogen flow, THF
  Comments: Gel-like sample
